Values of other authors as cited in article PMC10045298, “In Vitro Pharmacokinetic Behavior of Antiviral 3-Amidinophenylalanine Derivatives in Rat, Dog and Monkey Hepatocytes” (Biomedicines, 2023).
Read-outs that look alike come from different tables or passages of the source.

What was measured:
[1] = test system: TMPRSS2; set-up: method as in PMID 35344983; conditions: cited from earlier work
[2] = test system: SARS-CoV-2; set-up: method as in PMID 35344983; conditions: human lung epithelium-derived human airway cells; cited from earlier work
[3] = test system: SARS-CoV-2; set-up: method as in PMID 35344983; conditions: K18-human ACE2 transgenic mouse model; cited from earlier work
[4] = test system: COVID-19; set-up: method as in PMID 35803469; conditions: repurposed drug candidate; cited from earlier work

SMILES | IC50 [1] | Inhibition of SARS-CoV-2 infection [2] | Inhibition of SARS-CoV-2 infection [3] | Outcome of clinical testing for COVID-19 [4]
CS(=O)(=O)N[C@@H](CCC(N)=O)C(=O)N[C@@H](Cc1ccccc1)C(=O)N[C@@H](CCCN=C(N)N)C(=O)c1nc2ccccc2s1 [N-0385, Ms-Gln-Phe-Arg-kbt] | […] | effective | effective | –
CN(C)C(=O)COC(=O)Cc1ccc(OC(=O)c2ccc(NC(=N)N)cc2)cc1.CS(=O)(=O)O [camostate, camostate mesylate] | – | – | – | failed during clinical testing
